From patent publication US20140221346A1, “THERAPEUTIC COMPOUNDS” (Gilead Sciences, Inc., priority 2013, published 2014)

Tests used:
[1] = Test B: Cytotoxicity Assay; format: cell-based; conditions: human, uninfected MT-4 cells, same protocol as Test A, CellTiter-Glo
Protocol: (§1) For the antiviral assay, 40 μL of 1× test concentration of 3-fold serially diluted compound in culture medium with 10% FBS was added to each well of a 384-well plate (10 concentrations) in quadruplicate. MT-4 cells were next mixed with HIV-IIIb at an m.o.i of 0.003 for 1 hour, after which time 35 μL of virus/cell mixture (2000 cells) was immediately added to each well containing 40 μL of diluted compound. The plates were then incubated at 37° C. for 5 days. After 5 days of incubation, 25 μl of 2× concentrated CellTiter-Glo™ Reagent (catalog #G7571, Promega Biosciences, Inc., Madison, Wis.) was added to each well containing MT-4 cells. Cell lysis was carried out by incubating at room temperature for 10 min and then chemiluminescence was read.
Compound cytotoxicity and the corresponding CC50 values was determined using the same protocol as described in the antiviral assay (Test A) except that uninfected cells were used.

[2] = system: HIV-IIIb; assay: Test A: Antiviral Assay in MT4 Cells; format: cell-based, HIV-1; conditions: Human immunodeficiency virus 1, IIIB, MT4, 120 h, read-out: % inhibition at 3 μM
Protocol: as §1

Structure (SMILES) | CC50 at 5 days [1] [µM] | inhibition at 3 µM [2] [%]
COCCNc1ncc(-c2ccc(F)c(C(N)=O)c2)c([C@H](Cc2cc(F)cc(F)c2)NC(=O)Cn2nc(C(F)F)c3c2C(F)(F)CCC3(F)F)n1 [Compound 12E, (S)-5-(4-(1-(2-(3-(difluoromethyl)-4,4,7,7-tetrafluoro-4,5,6,7-tetrahydro-1H-indazol-1-yl)acetamido)-2-(3,5-difluorophenyl)ethyl)-2-((2-methoxyethyl)amino)pyrimidin-5-yl)-2-fluorobenzamide] | 18.2 | 86
NC(=O)c1cc(-c2cnc(NCCN3CCCC3=O)nc2[C@H](Cc2cc(F)cc(F)c2)NC(=O)Cn2nc(C(F)F)c3c2C(F)(F)CCC3(F)F)ccc1F [Compound 24, (S)-5-(4-(1-(2-(3-(difluoromethyl)-4,4,7,7-tetrafluoro-4,5,6,7-tetrahydro-1H-indazol-1-yl)acetamido)-2-(3,5-difluorophenyl)ethyl)-2-((2-(2-oxopyrrolidin-1-yl)ethyl)amino)pyrimidin-5-yl)-2-fluorobenzamide] | 37.2 | 79
Nc1ccc(-c2ccc(Oc3ccccc3)cc2)c(C(Cc2cc(F)cc(F)c2)NC(=O)Cc2c[nH]c3ccc(F)cc23)n1 (stereo not drawn) [Compound 7, N-(1-(6-amino-3-(4-phenoxyphenyl)pyridin-2-yl)-2-(3,5-difluorophenyl)ethyl)-2-(5-fluoro-1H-indol-3-yl)acetamide] | 11.5 | 37
CN(C)c1ncc(-c2ccc(F)c(C(N)=O)c2)c([C@H](Cc2cc(F)cc(F)c2)NC(=O)Cn2nc(C(F)F)c3c2C(F)(F)CCC3(F)F)n1 [Compound 18B, (S)-5-(4-(1-(2-(3-(difluoromethyl)-4,4,7,7-tetrafluoro-4,5,6,7-tetrahydro-1H-indazol-1-yl)acetamido)-2-(3,5-difluorophenyl)ethyl)-2-(dimethylamino)pyrimidin-5-yl)-2-fluorobenzamide] | 38.9 | 16
O=C(Cn1nc(C(F)F)c2c1C(F)(F)CCC2(F)F)N[C@@H](Cc1cc(F)cc(F)c1)c1nc(-n2cncn2)ncc1-c1ccc2c(c1)C(=O)NC2 [Compound 29D, (S)-2-(3-(difluoromethyl)-4,4,7,7-tetrafluoro-4,5,6,7-tetrahydro-1H-indazol-1-yl)-N-(2-(3,5-difluorophenyl)-1-(5-(3-oxoisoindolin-5-yl)-2-(1H-1,2,4-triazol-1-yl)pyrimidin-4-yl)ethyl)acetamide] | 40 | 101
CNc1ncc(-c2ccc(F)c(C(N)=O)c2)c([C@H](Cc2cc(F)cc(F)c2)NC(=O)Cn2nc(C(F)F)c3c2C(F)(F)CCC3(F)F)n1 [Compound 14B, (S)-5-(4-(1-(2-(3-(difluoromethyl)-4,4,7,7-tetrafluoro-4,5,6,7-tetrahydro-1H-indazol-1-yl)acetamido)-2-(3,5-difluorophenyl)ethyl)-2-(methylamino)pyrimidin-5-yl)-2-fluorobenzamide] | 28.6 | 89
NC(=O)c1cc(-c2cnc(N3CC4(COC4)C3)nc2[C@H](Cc2cc(F)cc(F)c2)NC(=O)Cn2nc(C(F)F)c3c2C(F)(F)CCC3(F)F)ccc1F [Compound 15B, (S)-5-(4-(1-(2-(3-(difluoromethyl)-4,4,7,7-tetrafluoro-4,5,6,7-tetrahydro-1H-indazol-1-yl)acetamido)-2-(3,5-difluorophenyl)ethyl)-2-(2-Oxa-6-azaspiro[3.3]heptan-6-yl)pyrimidin-5-yl)-2-fluorobenzamide] | 36.3 | 70
NC(=O)c1cc(-c2cnc(N3CCC(O)CC3)nc2[C@H](Cc2cc(F)cc(F)c2)NC(=O)Cn2nc(C(F)F)c3c2C(F)(F)CCC3(F)F)ccc1F [Compound 21, (S)-5-(4-(1-(2-(3-(difluoromethyl)-4,4,7,7-tetrafluoro-4,5,6,7-tetrahydro-1H-indazol-1-yl)acetamido)-2-(3,5-difluorophenyl)ethyl)-2-(4-hydroxypiperidin-1-yl)pyrimidin-5-yl)-2-fluorobenzamide] | 22.5 | 41
Nc1ccc(-c2cccc(F)c2)c(C(Cc2cc(F)cc(F)c2)NC(=O)Cc2c[nH]c3ccc(F)cc23)n1 (stereo not drawn) [Compound 9, N-(1-(6-amino-3-(3-fluorophenyl)pyridin-2-yl)-2-(3,5-difluorophenyl)ethyl)-2-(5-fluoro-1H-indol-3-yl)acetamide] | 17.5 | 41
NC(=O)c1cc(-c2cnc(NCCn3ccnn3)nc2[C@H](Cc2cc(F)cc(F)c2)NC(=O)Cn2nc(C(F)F)c3c2C(F)(F)CCC3(F)F)ccc1F [Compound 23F, (S)-5-(2-((2-(1H-1,2,3-triazol-1-yl)ethyl)amino)-4-(1-(2-(3-(difluoromethyl)-4,4,7,7-tetrafluoro-4,5,6,7-tetrahydro-1H-indazol-1-yl)acetamido)-2-(3,5-difluorophenyl)ethyl)pyrimidin-5-yl)-2-fluorobenzamide] | 32.7 | 77
NC(=O)c1cc(-c2cnc(NCCN3CCNC3=O)nc2[C@H](Cc2cc(F)cc(F)c2)NC(=O)Cn2nc(C(F)F)c3c2C(F)(F)CCC3(F)F)ccc1F [Compound 22B, (S)-5-(4-(1-(2-(3-(difluoromethyl)-4,4,7,7-tetrafluoro-4,5,6,7-tetrahydro-1H-indazol-1-yl)acetamido)-2-(3,5-difluorophenyl)ethyl)-2-((2-(2-oxoimidazolidin-1-yl)ethyl)amino)pyrimidin-5-yl)-2-fluorobenzamide] | 34.1 | 93
NC(=O)c1cc(-c2cnc(NC3CCOC3)nc2[C@H](Cc2cc(F)cc(F)c2)NC(=O)Cn2nc(C(F)F)c3c2C(F)(F)CCC3(F)F)ccc1F (stereo partly drawn) [Compound 25, 5-(4-((S)-1-(2-(3-(difluoromethyl)-4,4,7,7-tetrafluoro-4,5,6,7-tetrahydro-1H-indazol-1-yl)acetamido)-2-(3,5-difluorophenyl)ethyl)-2-((tetrahydrofuran-3-yl)amino)pyrimidin-5-yl)-2-fluorobenzamide] | 37.7 | 69
Nc1ccc(-c2cccc(S(N)(=O)=O)c2)c(C(Cc2cc(F)cc(F)c2)NC(=O)Cc2c[nH]c3ccc(F)cc23)n1 (stereo not drawn) [Compound 5, N-(1-(6-amino-3-(3-sulfamoylphenyl)pyridin-2-yl)-2-(3,5-difluorophenyl)ethyl)-2-(5-fluoro-1H-indol-3-yl)acetamide] | 28.7 | 87
NC(=O)c1cccc(-c2ccc(N)nc2C(Cc2cc(F)cc(F)c2)NC(=O)Cc2c[nH]c3ccc(F)cc23)c1 (stereo not drawn) [Compound 4, 3-(6-amino-2-(2-(3,5-difluorophenyl)-1-(2-(5-fluoro-1H-indol-3-yl)acetamido)ethyl)pyridin-3-yl)benzamide] | 13.1 | 94
NC(=O)c1cc(-c2cnc(NCCN3CCCC3)nc2[C@H](Cc2cc(F)cc(F)c2)NC(=O)Cn2nc(C(F)F)c3c2C(F)(F)CCC3(F)F)ccc1F [Compound 27] | 3.5 | –
CC(=O)Oc1ccc(-c2ccc(F)c(C(N)=O)c2)c([C@H](Cc2cc(F)cc(F)c2)NC(=O)Cn2nc(C(F)F)c3c2C(F)(F)CCC3(F)F)n1 [Compound 20B, (S)-5-(3-carbamoyl-4-fluorophenyl)-6-(1-(2-(3-(difluoromethyl)-4,4,7,7-tetrafluoro-4,5,6,7-tetrahydro-1H-indazol-1-yl)acetamido)-2-(3,5-difluorophenyl)ethyl)pyridin-2-yl acetate] | > 53.2 | –
